Experimental data reported in article PMC8744835, “Sterically Hindered Quaternary Phosphonium Salts (QPSs): Antimicrobial Activity and Hemolytic and Cytotoxic Properties” (International Journal of Molecular Sciences, 2021).
Values after ≈ are worked out from the molar mass of the structure shown.

Legend:
[1] = tested on: Candida albicans ATCC 10231; assay: Fungicidal activity, serial dilution technique; type: cell-based; conditions: average of three ± SD, - means non-active; for MBC / MFC / MIC: Candida albicans, ATCC10231, Ca; for MBC / MFC: read-out: Minimum Bactericidal and Fungicidal Concentration (MBC, MFC), Ca; for MIC: read-out: Minimum Inhibitory Concentration (MIC), Ca
Protocol: (§1) The synthesized compounds were tested for antimicrobial activity against a number of Gram-positive bacteria, Staphylococcus aureus (Sa), Bacillus cereus (Bc) and Enterococcus faecalis (Ef), and Gram-negative bacteria, Escherichia coli (Ec) and Pseudomonas aeruginosa (Pa), including the methicillin-resistant strains S. aureus MRSA-1 (resistant to fluoroquinolones and beta-lactams) and MRSA-2 (resistant to beta-lactams). The methicillin-resistant strains S. aureus were transferred by the Republican Clinical Hospital of the Republic of Tatarstan (Kazan). The fungicidal activity against Candida albicans (Ca) and Trichophyton mentagrophytes var. gypseum (Tm) was studied. These pathogens were chosen because they are the most widespread in the food industry and the healthcare system.
(§2) The antimicrobial activity of the QPSs was determined using the serial dilution technique in Mueller–Hinton Broth 2. The cultures used for testing included the Gram-positive bacteria Staphylococcus aureus ATCC 6538P FDA 209P, Enterococcus faecalis ATCC 2921 and Bacillus cereus ATCC 10702 NCTC 8035, the Gram-negative bacteria Escherichia coli ATCC 25922 and Pseudomonas aeruginosa ATCC 9027, and the fungi Trichophyton mentagrophytes var. gypseum 1773 and Candida albicans ATCC 10231; methicillin-resistant strains of S. aureus MRSA were obtained from hospital patients with chronic tonsillitis (MRSA-1) and sinusitis (MRSA-2) in the Republican Clinical Hospital (Kazan, Russia). Ciprofloxacin and ketoconazole were purchased from Sigma-Aldrich. The bacterial load was 3.0 × 10^5 cfu/mL. The results were recorded every 24 h for 5 days. The cultures were incubated at 37 °C. The experiment was repeated three times. […] The minimum inhibitory concentration (MIC) was defined as the minimum concentration of a compound that inhibits the growth of the corresponding test micro-organism. The growth of bacteria as well as the absence of growth due to the bacteriostatic action of a compound was recorded.

[2] = tested on: Trichophyton mentagrophytes var. gypseum 1773; assay: Fungicidal activity, serial dilution technique; type: cell-based; conditions: for Minimum Bactericidal and Fungicidal Concentration (MBC, MFC), Tm / Minimum Inhibitory Concentration (MIC), Tm: average of three ± SD, - means non-active
Protocol: as §1, §2

[3] = tested on: Bacillus cereus ATCC 10702 NCTC 8035; assay: Antimicrobial activity, serial dilution technique in Mueller–Hinton Broth 2; type: cell-based; conditions: average of three ± SD, - means non-active; for MIC / MBC: Bacillus cereus, Bc; for MIC: read-out: Minimum Inhibitory Concentration (MIC), Bc; for MBC: read-out: Minimum Bactericidal and Fungicidal Concentration (MBC, MFC), Bc
Protocol: as §1
as §2, with “Ciprofloxacin and ketoconazole were purchased from Sigma-Aldrich.” left out

[4] = tested on: Enterococcus faecalis ATCC 2921; assay: as above; type: cell-based; conditions: average of three ± SD, - means non-active; for MIC / MBC: Enterococcus faecalis, ATCC2921, Ef; for MIC: read-out: Minimum Inhibitory Concentration (MIC), Ef; for MBC: read-out: Minimum Bactericidal and Fungicidal Concentration (MBC, MFC), Ef
Protocol: as §1
as §2, with “Ciprofloxacin and ketoconazole were purchased from Sigma-Aldrich.” left out

[5] = tested on: Pseudomonas aeruginosa ATCC 9027; assay: as above; type: cell-based; conditions: average of three ± SD, - means non-active
Protocol: as §1
as §2, with “Ciprofloxacin and ketoconazole were purchased from Sigma-Aldrich.” left out

[6] = tested on: Escherichia coli ATCC 25922; assay: as above; type: cell-based; conditions: average of three ± SD, - means non-active
Protocol: as §1
as §2, with “Ciprofloxacin and ketoconazole were purchased from Sigma-Aldrich.” left out

[7] = tested on: Staphylococcus aureus ATCC 6538P FDA 209P; assay: as above; type: cell-based; conditions: average of three ± SD, - means non-active; for MIC: read-out: Minimum Inhibitory Concentration (MIC), Sa
Protocol: as §1
as §2, with “Ciprofloxacin and ketoconazole were purchased from Sigma-Aldrich.” left out

[8] = tested on: Escherichia coli ATCC 25922; assay: as above; type: cell-based; conditions: average of three ± SD, - means non-active; for MBC: Escherichia coli, ATCC25922, Ec, read-out: Minimum Bactericidal and Fungicidal Concentration (MBC, MFC), Ec
[9] = tested on: methicillin-resistant S. aureus MRSA-1; assay: as above; type: cell-based, Staphylococcus aureus; conditions: - means non-active; for Minimum Inhibitory Concentration (MIC), MRSA-1 / MIC: MRSA-1 (resistant to fluoroquinolones and beta-lactams); for MIC: read-out: Minimum Inhibitory Concentration (MIC), MRSA-1
Protocol: as §1
as §2, with “Ciprofloxacin and ketoconazole were purchased from Sigma-Aldrich.” left out

[10] = tested on: methicillin-resistant S. aureus MRSA-2; assay: as above; type: cell-based, Staphylococcus aureus; conditions: - means non-active; for Minimum Inhibitory Concentration (MIC), MRSA-2 / MIC: MRSA-2 (resistant to beta-lactams); for MIC: read-out: Minimum Inhibitory Concentration (MIC), MRSA-2
Protocol: as §1
as §2, with “Ciprofloxacin and ketoconazole were purchased from Sigma-Aldrich.” left out

[11] = Trichophyton mentagrophytes, read-out: Minimum Bactericidal and Fungicidal Concentration (MBC, MFC), Tm

Row | SMILES | Minimum Inhibitory Concentration (MIC), Bc [3] | Minimum Inhibitory Concentration (MIC), Ef [4] | Minimum Inhibitory Concentration (MIC), Pa [5] | Minimum Inhibitory Concentration (MIC), Ec [6] | Minimum Inhibitory Concentration (MIC), Sa [7] | Minimum Inhibitory Concentration (MIC), MRSA-1 [9] | Minimum Inhibitory Concentration (MIC), MRSA-2 [10] | MIC [3] | MIC [4] | MIC ([7]; Staphylococcus aureus, Sa) | MIC ([10]; Staphylococcus aureus, MRSA) | Minimum Inhibitory Concentration (MIC), Ca [1] | Minimum Bactericidal and Fungicidal Concentration (MBC, MFC), Tm [2] | Minimum Inhibitory Concentration (MIC), Tm [2] | Minimum Bactericidal and Fungicidal Concentration (MBC, MFC), Bc [3] | Minimum Bactericidal and Fungicidal Concentration (MBC, MFC), Ef [4] | Minimum Bactericidal and Fungicidal Concentration (MBC, MFC), Sa [7] | Minimum Bactericidal and Fungicidal Concentration (MBC, MFC), MRSA-1 ([9]; MRSA-1) | Minimum Bactericidal and Fungicidal Concentration (MBC, MFC), MRSA-2 ([10]; MRSA-2) | MBC [1] | also measured
1 | O=C(O)c1cn(C2CC2)c2cc(N3CCNCC3)c(F)cc2c1=O [Ciprofloxacin, reference compound] | – | – | – | – | – | – | – | 0.5 ± 0.04 µg/mL (≈ 1.51 µM) | 3.9 ± 0.3 µg/mL (≈ 11.8 µM) | 0.5 ± 0.03 µg/mL (≈ 1.51 µM) | 0.9 ± 0.07 µg/mL (≈ 2.72 µM) | – | – | – | – | – | – | – | – | – | MIC ([5]; Pseudomonas aeruginosa, ATCC9027, Pa, read-out: Minimum Inhibitory Concentration (MIC), Pa): 0.5 ± 0.03 µg/mL (≈ 1.51 µM); MIC ([9]; Staphylococcus aureus, MRSA): 125 ± 11 µg/mL (≈ 377 µM)
2 | CC(=O)N1CCN(c2ccc(OCC3COC(Cn4ccnc4)(c4ccc(Cl)cc4Cl)O3)cc2)CC1 (stereo not shown) [Ketoconazole, reference compound] | – | – | – | – | – | – | – | – | – | – | – | 3.9 ± 0.3 µg/mL | – | 3.9 ± 0.2 µg/mL | – | – | – | – | – | 3.9 ± 0.3 µg/mL (≈ 7.34 µM) | MFC [1]: 3.9 ± 0.3 µg/mL (≈ 7.34 µM); MIC [1]: 3.9 ± 0.3 µg/mL (≈ 7.34 µM); MBC [2, 11]: 3.9 ± 0.2 µg/mL (≈ 7.34 µM); MFC [2, 11]: 3.9 ± 0.2 µg/mL (≈ 7.34 µM); MIC ([2]; Trichophyton mentagrophytes, read-out: Minimum Inhibitory Concentration (MIC), Tm): 3.9 ± 0.2 µg/mL (≈ 7.34 µM)
3 | CCCCCCCCCCC[P+](C(C)(C)C)(C(C)(C)C)C(C)(C)C [Compound 11a] | – | – | – | – | – | 1.9 ± 0.1 µg/mL | – | 1.9 ± 0.1 µg/mL | 7.8 ± 0.5 µg/mL | 0.9 ± 0.07 µg/mL | 0.9 ± 0.08 µg/mL | – | 31.3 ± 2.5 µg/mL | 31.3 ± 2.5 µg/mL | – | – | 1.9 ± 0.1 µg/mL | 1.9 ± 0.1 µg/mL | 7.8 ± 0.6 µg/mL | 62.5 ± 5.7 µg/mL | MIC [1]: 62.5 ± 5.5 µg/mL; MBC [3]: 125 ± 10 µg/mL; MBC [4]: 7.8 ± 0.6 µg/mL; MIC ([6]; Escherichia coli, ATCC25922, Ec, read-out: Minimum Inhibitory Concentration (MIC), Ec): 31.3 ± 2.6 µg/mL; MBC [8]: 31.3 ± 2.3 µg/mL

The next lines start with results.

Row | Minimum Inhibitory Concentration (MIC), Bc [3] | Minimum Inhibitory Concentration (MIC), Ef [4] | Minimum Inhibitory Concentration (MIC), Pa [5] | Minimum Inhibitory Concentration (MIC), Ec [6] | Minimum Inhibitory Concentration (MIC), Sa [7] | Minimum Inhibitory Concentration (MIC), MRSA-1 [9] | Minimum Inhibitory Concentration (MIC), MRSA-2 [10] | MIC [3] | MIC [4] | MIC ([7]; Staphylococcus aureus, Sa) | MIC ([10]; Staphylococcus aureus, MRSA) | SMILES | Minimum Inhibitory Concentration (MIC), Ca [1] | Minimum Bactericidal and Fungicidal Concentration (MBC, MFC), Tm [2] | Minimum Inhibitory Concentration (MIC), Tm [2] | Minimum Bactericidal and Fungicidal Concentration (MBC, MFC), Bc [3] | Minimum Bactericidal and Fungicidal Concentration (MBC, MFC), Ef [4] | Minimum Bactericidal and Fungicidal Concentration (MBC, MFC), Sa [7] | Minimum Bactericidal and Fungicidal Concentration (MBC, MFC), MRSA-1 ([9]; MRSA-1) | Minimum Bactericidal and Fungicidal Concentration (MBC, MFC), MRSA-2 ([10]; MRSA-2) | MBC [1] | also measured
4 | 0.5 ± 0.03 µg/mL | 0.5 ± 0.04 µg/mL | 3.9 ± 0.2 µg/mL | 3.9 ± 0.2 µg/mL | 0.2 ± 0.01 µg/mL | 0.3 ± 0.01 µg/mL | 0.5 ± 0.03 µg/mL | – | – | – | – | CCCCCCCCCCCCCCC[P+](C(C)(C)C)(C(C)(C)C)C(C)(C)C [Compound 15b] | 1.9 ± 0.1 µg/mL | 62.5 ± 5.2 µg/mL | 62.5 ± 5.5 µg/mL | 15.6 ± 1.3 µg/mL | 3.9 ± 0.2 µg/mL | 0.5 ± 0.03 µg/mL | 0.3 ± 0.01 µg/mL | 0.5 ± 0.04 µg/mL | – | Minimum Bactericidal and Fungicidal Concentration (MBC, MFC), Ca [1]: 15.6 ± 1.2 µg/mL; Minimum Bactericidal and Fungicidal Concentration (MBC, MFC), Pa [5]: 3.9 ± 0.3 µg/mL; Minimum Bactericidal and Fungicidal Concentration (MBC, MFC), Ec [8]: 3.9 ± 0.2 µg/mL
5 | – | – | 31.3 ± 2.7 µg/mL | 0.9 ± 0.07 µg/mL | – | – | – | 1.9 ± 0.1 µg/mL | 0.5 ± 0.03 µg/mL | 0.5 ± 0.04 µg/mL | 0.5 ± 0.03 µg/mL | CCCCCCCCCCCCCCCC[P+](C(C)(C)C)(C(C)(C)C)C(C)(C)C [Compound 16a] | 1.9 ± 0.1 µg/mL | – | – | – | – | – | – | – | 3.9 ± 0.3 µg/mL | MBC [3]: 31.3 ± 2.2 µg/mL; MBC [4]: 0.5 ± 0.03 µg/mL; MBC ([5]; Pseudomonas aeruginosa, ATCC9027, Pa, read-out: Minimum Bactericidal and Fungicidal Concentration (MBC, MFC), Pa): 125 ± 9 µg/mL; MBC ([7]; Staphylococcus aureus, Sa, read-out: Minimum Bactericidal and Fungicidal Concentration (MBC, MFC), Sa): 0.5 ± 0.03 µg/mL; MBC [8]: 1.9 ± 0.1 µg/mL; MIC ([9]; Staphylococcus aureus, MRSA): 1.9 ± 0.1 µg/mL; MBC ([9]; Staphylococcus aureus, MRSA, MRSA-1, read-out: Minimum Bactericidal and Fungicidal Concentration (MBC, MFC), MRSA-1): 7.8 ± 0.6 µg/mL; MBC ([10]; Staphylococcus aureus, MRSA, MRSA-2, read-out: Minimum Bactericidal and Fungicidal Concentration (MBC, MFC), MRSA-2): 7.8 ± 0.7 µg/mL
6 | 1.9 ± 0.1 µg/mL | 0.5 ± 0.03 µg/mL | 7.8 ± 0.6 µg/mL | 15.6 ± 1.2 µg/mL | 0.5 ± 0.04 µg/mL | 1.9 ± 0.1 µg/mL | 1.9 ± 0.1 µg/mL | – | – | – | – | CCCCCCCCCCCCCCCCC[P+](C(C)(C)C)(C(C)(C)C)C(C)(C)C [Compound 17b] | 1.9 ± 0.1 µg/mL | 125 ± 11 µg/mL | 125 ± 10 µg/mL | 15.6 ± 1.3 µg/mL | 3.9 ± 0.2 µg/mL | 0.5 ± 0.04 µg/mL | 1.9 ± 0.1 µg/mL | 1.9 ± 0.1 µg/mL | – | MFC [1]: 7.8 ± 0.7 µg/mL; Minimum Bactericidal and Fungicidal Concentration (MBC, MFC), Pa [5]: 15.6 ± 1.3 µg/mL
7 | 1.9 ± 0.1 µg/mL | 7.8 ± 0.6 µg/mL | – | 62.5 ± 5.3 µg/mL | 0.9 ± 0.07 µg/mL | 0.3 ± 0.02 µg/mL | 0.5 ± 0.04 µg/mL | – | – | – | – | CCCCCCCCCCC[P+](C(C)(C)C)(C(C)(C)C)C(C)(C)C [Compound 11b] | 31.3 ± 2.4 µg/mL | 125 ± 9 µg/mL | 125 ± 9 µg/mL | 125 ± 10 µg/mL | 15.6 ± 1.2 µg/mL | 3.9 ± 0.2 µg/mL | 0.5 ± 0.03 µg/mL | 0.9 ± 0.07 µg/mL | – | Minimum Bactericidal and Fungicidal Concentration (MBC, MFC), Ca [1]: 31.3 ± 2.1 µg/mL; Minimum Bactericidal and Fungicidal Concentration (MBC, MFC), Ec [8]: 62.5 ± 5.4 µg/mL
